# Patent publication US20060167229A1, “Biologically active peptide conjugates” (priority 2002, published 2006)
# Marks after values point to notes of the source that are not given here. Ends that are not written are not given here.
# How the values were obtained:
# Assay type in all cases: in vivo, BALB/c mice
# IL-2 = assay: T lymphocyte IL-2 secretion test (HT-2 cell bioassay of ConA supernatant); settings: for activity of T lymphocyte in secreting IL-2, X ± SD (IU): healthy mice; for effect on the secretion of interleukin-2 (IL-2) by T lymphocytes (summary): statistically significant difference from saline in any of the dosage groups 0.5-500 μg/kg/day
# Protocol: (§1) Spleen cells of density 1×10^6/ml were placed onto a 96 wells cell culture plate, 100 μL/well, three parallel wells each of the assay sample and control sample per mouse. To the assay wells, 100 μl/well ConA of 100 μg/ml in RPMI-1640 was added, and 1001 μl/well plain RPMI-1640 was used for the controls. The cells were incubated for 66 hrs at 37° C., 5% CO2. The cells were then pelleted by centrifugation at 150 g for 10 minutes.
# HT-2 cells at log phase were collected by centrifugation at 150 g for 10 minutes, and washed three times with cold Hank's solution by re-suspension and centrifugation. The collected HT-2 cells were re-suspended in RPMI-1640 and incubated at 37° C., 5% CO2 for 30 minutes. The cells were further washed twice with RPMI-1640 by re-suspension and centrifugation, and re-suspended to final concentration of 2×10^5/ml with RPMI-1640.
# rIL-2 was diluted to the following concentration with RPMI-1640: 500 IU/ml, 250 IU/ml, 125 IU/ml, 62.5 IU/ml, 31.25 IU/ml, and […].
# The plate was incubated at 37° C., 5% CO2 for 68 hours, then centrifuged at 150 g for 15 minutes and the supernatant removed. 100 μl 0.5 mg/ml MTT in RPMI-1640 without phenolsulfonphthalein was added into each well. After shaking for 3-4 minutes to re-suspend the cells, continue to incubate for another 4 hours. Samples were then centrifuged at 150 g for 15 minutes and the supernatant was removed. To each well, 120 μl 40 mM HCl-2-propanol was added, mixed for 3-4 minutes and OD analyzed at 570 nm, referenced at 630 nm with an ELISA plate reader.
# The average OD of the three parallel wells of each dilution was taken and plotted against concentration on a semi-log paper, concentration on the X-axis. The concentration at 50% OD saturation was obtained for both the testing supernatant and rIL-2.
# T lymphocyte = T lymphocyte transformation in mice with ascitic fluid type liver cancer H22; settings: saline 1.25 ± 0.07
# Protocol: Healthy BALB/c mice were randomised into peptide group, rmIFN-γ group, rhIL-2 group, and saline group, 15 mice per group, and prepared into H22 carrying mice model as described in section Method 3. After implantation of the cancer cells, the test substances were administered for 15 days, the mice were killed by cervical dislocation. The spleen was isolated aseptically and manually dispersed in cold D-Hank's solution using an injection needle. The dispersed cell suspension was further sieved through a 100-gauge 150 μm diameter stainless steel sieve. After centrifugation at 200 g for 10 minutes, the supernatant was discarded. The cell pellet was re-suspended in 10 volume of Tris-NH4Cl buffer and then kept standing still for 10 minutes at room temperature. The suspended cells were collected by centrifugation at 150 g for 10 minutes. The cells were washed 2-4 times with cold D-Hank's solution by re-suspending and collecting by centrifugation with condition as described above. The washed cells were then diluted to the desired cell densities by RPMI-1640 culture medium, containing 10% fetal bovine serum.
# as §1, with “μl/well,” for “μL/well,”, “100” for “1001”
# 50 μl/well MTT of 1 mg/ml in RPMI-1640 was added to the cell pellet and the cells re-suspended by shaking for 2 minutes. The incubation was continued for 4 hours. The supernatant was discarded after centrifugation at 150 g for 10 minutes. 120 μl 40 mM HCl-2-propanol was added to the cell pellet and shaken for 3 minutes. Use an ELISA reader to obtain OD570 nm of each well referenced at 630 nm.
# Each mouse formed three assay wells and three control wells. The Stimulation Index (SI) of each mouse was obtained by first deriving the average OD of the three parallel wells, then dividing the value of the assay wells by the control wells.
# S180 sarcoma = assay: Growth of transplanted S180 sarcoma; settings: for Tumor weight: saline 1.29 ± 0.50
# Protocol: (§2) Intraperitoneal injection, once per day. […] Treatment of all groups with testing substance lasted for 30 days or until the animal died unless otherwise specified.
# (§3) Stock S180 sarcoma cells were incubated in DMEM/F12 medium supplemented with 10% fetal bovine serum, 37° C., 5% CO2 for 72 hrs, then washed 3-4 times with Hank's solution at room temperature. Adjust the cell concentration to 1-2×10^9 per litre with Hank's solution. […] The mice were killed by cervical vertebra dislocation. Vigorously growing and non-disrupted tumor masses were harvested and washed clean with sterile saline. The tissue was dispersed in saline to a homogenous cell suspension, in a ratio of 1 g tissue to 4 ml saline. The sarcoma bearing mice model was prepared with an injection of 0.2 ml cell suspension through the armpit. Administration of test substance treatment started as described in section Method 1.
# 2.2 The Tumor Growth Inhibition Index was Calculated According to the Following Formula: Tumor growth inhibition index=(mean tumor weight of control group−mean tumor weight of treatment group)÷mean tumor weight of control group 3.
# mononuclear phagocyte = assay: Phagocytotic function of mononuclear phagocyte in mice with transplanted S180 sarcoma; settings: saline 5.38 ± 0.85
# Protocol: as §2, §3
# 2.1 The effect of peptides on the phagocytotic function of mononuclear phagocyte in mice with S180 sarcoma was analysed by injecting mice from the tail vein with 0.1 ml/10 g body weight of Indian ink (1:5 dilution with normal saline) on the second day after the last test substance administration. At one minute and five minutes after the injection, 20 μl blood was obtained from the eye canthus with heparinised tubing. The blood was mixed with 2 ml 0.1% w/v Na2CO3 and then OD680 nm obtained. The outline clear index K was calculated by the following formula: K=(lgA1−lgA2)÷(t2−t1)
# After the phagocytosis index study, the mice were killed by cervical vertebra dislocation. The liver, spleen, and cancer tissue were dissected, blotted dry, and weighed. The phagocytosis index a was calculated as below: α=(^3√{square root over ( )}K)×(W÷WLS)
# [1] = peptide 500 μg/kg/day i.p. 15 days (IFN-γ, IL-2 3×10^5 IU/kg/day), saline 39 ± 10
# [2] = peptide 0.51 g/kg/day (so in the source) i.p. 15 days (IFN-γ, IL-2 3×10^5 IU/kg/day), saline 38 ± 13
# [3] = dose 500 μg/kg i.p. once per day
# [4] = peptide 50 μg/kg/day i.p. 15 days (IFN-γ, IL-2 3×10^5 IU/kg/day), saline 39 ± 10
# [5] = peptide 5 μg/kg/day i.p. 15 days (IFN-γ, IL-2 3×10^5 IU/kg/day), saline 37 ± 9
# [6] = dose 0.5 μg/kg i.p. once per day
# [7] = controls: IL-2, IFN-γ 3 × 10^5 IU/kg, cyclophosphamide 20 mg/kg
molecule,measurement,setting,value
VAPEEHPTLLTEAPLNPK [CMS010],"activity of T lymphocyte in secreting IL-2, X ± SD (IU)",IL-2; [1],125 ± 17*^@^ IU
same,"activity of T lymphocyte in secreting IL-2, X ± SD (IU)",IL-2; [2],66 ± 11 IU
same,effect on the secretion of interleukin-2 (IL-2) by T lymphocytes (summary),IL-2,enhance
same,Stimulation index,T lymphocyte; dose 500 μg/kg,1.45 ± 0.21*^$
same,Tumor inhibition index (%),S180 sarcoma; [3],48.4%
same,Tumor weight,S180 sarcoma; [3],0.67 ± 0.35 g
FNFVPP [CMS003],"activity of T lymphocyte in secreting IL-2, X ± SD (IU)",IL-2; [4],86 ± 9*^ IU
same,effect on the secretion of interleukin-2 (IL-2) by T lymphocytes (summary),IL-2,enhance
VGMGQKDSY,Stimulation index,T lymphocyte; dose 0.5 μg/kg,1.50 ± 0.19*^$
Pro Ser Ile Vat Gly Arg Pro Arg His Gln Gly Val Met (PSIVGRPRHQGVM; listed as Sus scrofa) [CMS015],"activity of T lymphocyte in secreting IL-2, X ± SD (IU)",IL-2; [1],85 ± 17*^ IU
same,effect on the secretion of interleukin-2 (IL-2) by T lymphocytes (summary),IL-2,enhance
VGMGQKDSYV [CMS020],"activity of T lymphocyte in secreting IL-2, X ± SD (IU)",IL-2; [5],63 ± 11 IU
same,effect on the secretion of interleukin-2 (IL-2) by T lymphocytes (summary),IL-2,enhance
LRVAPQQHPTL [CMS009],"activity of T lymphocyte in secreting IL-2, X ± SD (IU)",IL-2; [1],114 ± 13*^@^ IU
same,effect on the secretion of interleukin-2 (IL-2) by T lymphocytes (summary),IL-2,enhance
Tyr Ser Leu (YSL; listed as Sus scrofa) [CMS024],Stimulation index,T lymphocyte; dose 0.5 μg/kg,1.46 ± 0.19*^$
same,Stimulation index,T lymphocyte; dose 5 μg/kg,1.45 ± 0.21*^$
LGMQACGIHETTY [CMS012],"activity of T lymphocyte in secreting IL-2, X ± SD (IU)",IL-2; [5],65 ± 16 IU
same,"activity of T lymphocyte in secreting IL-2, X ± SD (IU)",IL-2; [2],59 ± 13 IU
same,effect on the secretion of interleukin-2 (IL-2) by T lymphocytes (summary),IL-2,enhance
Phe Val Asn Asp (FVND; listed as Sus scrofa) [CMS035],Stimulation index,T lymphocyte; dose 0.5 μg/kg,1.40 ± 0.13*^$
same,Stimulation index,T lymphocyte; dose 5 μg/kg,1.46 ± 0.16*^$
same,Tumor inhibition index (%),S180 sarcoma; dose 5 μg/kg i.p. once per day,44.6%
same,Tumor weight,S180 sarcoma; dose 5 μg/kg i.p. once per day,0.71 ± 0.37 g
Pro Gln Asn Phe (PQNF; printed: Pro Gln Asn Phe) [CMS034],"activity of T lymphocyte in secreting IL-2, X ± SD (IU)",IL-2; [2],85 ± 10*^ IU
same,effect on the secretion of interleukin-2 (IL-2) by T lymphocytes (summary),IL-2,enhance
same,Stimulation index,T lymphocyte; dose 0.5 μg/kg,1.37 ± 0.10*^$
same,Tumor inhibition index (%),S180 sarcoma; [6],35.9%
same,Tumor weight,S180 sarcoma; [6],0.83 ± 0.48 g
same,Phagocytosis index,mononuclear phagocyte; [6],6.35 ± 1.02
same,Phagocytosis index,mononuclear phagocyte; dose 5 μg/kg i.p. once per day,6.20 ± 0.44*^
PTTKTYFPHF [CMS001],"activity of T lymphocyte in secreting IL-2, X ± SD (IU)",IL-2; [4],60 ± 10 IU
same,effect on the secretion of interleukin-2 (IL-2) by T lymphocytes (summary),IL-2,enhance
same,Phagocytosis index,mononuclear phagocyte; dose 5 μg/kg i.p. once per day,6.67 ± 0.43*^
same,Phagocytosis index,mononuclear phagocyte; dose 50 μg/kg i.p. once per day,6.24 ± 0.33*^
Tyr Ser Phe (YSF; listed as Sus scrofa) [CMS022],"activity of T lymphocyte in secreting IL-2, X ± SD (IU)",IL-2; [2],109 ± 14*^@^ IU
same,effect on the secretion of interleukin-2 (IL-2) by T lymphocytes (summary),IL-2,enhance
RVAPQQHPTL [CMS011],"activity of T lymphocyte in secreting IL-2, X ± SD (IU)",IL-2; [2],101 ± 19*^@^ IU
same,effect on the secretion of interleukin-2 (IL-2) by T lymphocytes (summary),IL-2,enhance
"IFN-γ: recombinant mouse IFN-γ (rmIFN-γ), Beijing Biotech Inc.; positive control (protein, UniProt P01580 23-155, looked up) Interferon gamma: HGTVIESLESLNNYFNSSGIDVEEKSLFLDIWRNWQKDGDMKILQSQIISFYLRLFEVLKDNQAISNNISVIESHLITTFFSNSKAKKDAFMSIAKFEVNNPQVQRQAFNELIRVVHQLLPESSLRKRKRSRC","activity of T lymphocyte in secreting IL-2, X ± SD (IU)",IL-2; [5],96 ± 14 IU
same,"activity of T lymphocyte in secreting IL-2, X ± SD (IU)",IL-2; [4],99 ± 16 IU
same,"activity of T lymphocyte in secreting IL-2, X ± SD (IU)",IL-2; [1],100 ± 18 IU
same,"activity of T lymphocyte in secreting IL-2, X ± SD (IU)",IL-2; [2],87 ± 15 IU
same,Stimulation index,"T lymphocyte; controls: rhIL-2, rmIFN-γ 3 × 10^5 IU/kg, cyclophosphamide 20 mg/kg",1.27 ± 0.14
same,Tumor inhibition index (%),S180 sarcoma; [7],25.3%
same,Tumor weight,S180 sarcoma; [7],0.96 ± 0.45 g
same,Phagocytosis index,mononuclear phagocyte; [7],5.45 ± 0.71
